Source: the NIST ThermoML archive (doi:10.1016/j.jct.2014.04.016)
Several values for one entry are separate records, joined by “and”; a condition that tells them apart may be missing. Identical values can stand only once.

Assay: xn = mol fraction of the nth substance listed
Conditions: 100 kPa; for electrical conductivity: Alternating current cell with electrodes; for viscosity: Concentric cylinders viscometry; for mass density: Vibrating tube method

CCCCCCCCOS(=O)(=O)[O-].CCn1cc[n+](C)c1 [1-ethyl-3-methylimidazolium octyl sulfate] + O
Conditions	electrical conductivity	mass density	viscosity
287.1 K, Liquid, x1 = 0.1402	–	1076.8 kg/m3	–
287.1 K, Liquid, x1 = 0.1605	–	1079.2 kg/m3	–
287.1 K, Liquid, x1 = 0.2632	–	1088.7 kg/m3	–
287.1 K, Liquid, x1 = 0.3076	0.375 S/m and 0.377 S/m	1091.2 kg/m3	169.3 mPa·s
287.6 K, Glass, x1 = 0.2632	0.469 S/m	–	10720 mPa·s and 11920 mPa·s
287.6 K, Liquid, x1 = 0.2632	–	1088.5 kg/m3 and 1088.8 kg/m3	–
288.1 K, Glass, x1 = 0.1402	–	–	1042 mPa·s
288.1 K, Glass, x1 = 0.1605	–	–	13780 mPa·s and 15800 mPa·s
288.1 K, Glass, x1 = 0.1766	0.844 S/m and 0.846 S/m	–	–
288.1 K, Glass, x1 = 0.2119	0.682 S/m and 0.681 S/m	–	–
288.1 K, Glass, x1 = 0.2632	0.48 S/m and 0.478 S/m	–	8600 mPa·s
288.1 K, Liquid, x1 = 0.0401	1.7 S/m	–	–
288.1 K, Liquid, x1 = 0.0586	1.67 S/m	–	–
288.1 K, Liquid, x1 = 0.0803	1.51 S/m	–	–
288.1 K, Liquid, x1 = 0.1197	–	1072.5 kg/m3	78.76 mPa·s
288.1 K, Liquid, x1 = 0.1402	1.03 S/m	1076 kg/m3	–
288.1 K, Liquid, x1 = 0.1605	0.932 S/m and 0.934 S/m	1078.8 kg/m3 and 1078.7 kg/m3	–
288.1 K, Liquid, x1 = 0.2632	–	1088.3 kg/m3	–
288.1 K, Liquid, x1 = 0.3076	0.389 S/m and 0.388 S/m	1090.5 kg/m3	159.4 mPa·s
288.1 K, Liquid, x1 = 0.3555	0.293 S/m and 0.294 S/m	1092.7 kg/m3	183.7 mPa·s
288.1 K, Liquid, x1 = 0.4108	0.24 S/m and 0.237 S/m	1094.5 kg/m3	206.8 mPa·s
288.1 K, Liquid, x1 = 0.4688	0.166 S/m and 0.159 S/m	–	–
288.1 K, Liquid, x1 = 0.5001	0.15 S/m	–	–
288.6 K, Glass, x1 = 0.2632	0.485 S/m	–	–
289.1 K, Glass, x1 = 0.1402	–	–	396.1 mPa·s
289.1 K, Glass, x1 = 0.1605	–	–	8364 mPa·s and 8406 mPa·s
289.1 K, Glass, x1 = 0.1766	0.868 S/m and 0.871 S/m	–	–
289.1 K, Glass, x1 = 0.2632	0.489 S/m	–	3435 mPa·s
289.1 K, Liquid, x1 = 0.1197	1.21 S/m	–	–
289.1 K, Liquid, x1 = 0.1402	1.06 S/m	1074.9 kg/m3	–
289.1 K, Liquid, x1 = 0.1605	0.964 S/m and 0.963 S/m	1078.4 kg/m3	–
289.1 K, Liquid, x1 = 0.2632	0.494 S/m	1087.8 kg/m3	–
289.1 K, Liquid, x1 = 0.3076	–	1089.8 kg/m3	150 mPa·s
289.6 K, Glass, x1 = 0.2632	–	–	1082 mPa·s
289.6 K, Liquid, x1 = 0.2632	0.503 S/m	1087.9 kg/m3	–
290.1 K, Glass, x1 = 0.1402	–	–	213.6 mPa·s
290.1 K, Glass, x1 = 0.1605	–	–	5299 mPa·s and 4500 mPa·s
290.1 K, Glass, x1 = 0.1766	0.895 S/m and 0.899 S/m	–	–
290.1 K, Glass, x1 = 0.2119	0.728 S/m	–	–
290.1 K, Liquid, x1 = 0.1402	–	1074.2 kg/m3	–
290.1 K, Liquid, x1 = 0.1605	–	1077.9 kg/m3 and 1078 kg/m3	–
290.1 K, Liquid, x1 = 0.2632	0.511 S/m	–	–
290.1 K, Liquid, x1 = 0.3076	–	1089.1 kg/m3	141.3 mPa·s
291.1 K, Glass, x1 = 0.1402	–	–	122.8 mPa·s
291.1 K, Glass, x1 = 0.1605	–	–	2756 mPa·s and 2752 mPa·s
291.1 K, Glass, x1 = 0.1766	0.924 S/m and 0.925 S/m	–	–
291.1 K, Glass, x1 = 0.2119	0.759 S/m and 0.757 S/m	–	–
291.1 K, Liquid, x1 = 0.0803	1.63 S/m	–	–
291.1 K, Liquid, x1 = 0.1402	1.12 S/m	1073.7 kg/m3	–
291.1 K, Liquid, x1 = 0.1605	1.02 S/m	1077.5 kg/m3	–
291.1 K, Liquid, x1 = 0.2632	0.527 S/m	1085.5 kg/m3	118.9 mPa·s
291.1 K, Liquid, x1 = 0.3076	0.441 S/m and 0.442 S/m	1088.1 kg/m3	133.1 mPa·s
291.1 K, Liquid, x1 = 0.3555	0.332 S/m	–	–
291.1 K, Liquid, x1 = 0.4108	0.271 S/m	–	–
291.1 K, Liquid, x1 = 0.4688	0.192 S/m	–	–
292.1 K, Glass, x1 = 0.1605	–	–	1353 mPa·s and 597.3 mPa·s
292.1 K, Glass, x1 = 0.1766	0.951 S/m and 0.953 S/m	–	–
292.1 K, Glass, x1 = 0.2119	0.779 S/m and 0.781 S/m	–	–
292.1 K, Liquid, x1 = 0.1402	–	1073.2 kg/m3	80.8 mPa·s
292.1 K, Liquid, x1 = 0.1605	–	1076.9 kg/m3 and 1076.7 kg/m3	–
292.1 K, Liquid, x1 = 0.2632	0.543 S/m	–	–
293.1 K, Glass, x1 = 0.1605	–	–	589.1 mPa·s and 232.2 mPa·s
293.1 K, Glass, x1 = 0.1766	0.977 S/m and 0.979 S/m	–	–
293.1 K, Glass, x1 = 0.2119	0.805 S/m	–	–
293.1 K, Liquid, x1 = 0.0401	1.92 S/m	–	–
293.1 K, Liquid, x1 = 0.0586	1.91 S/m	–	–
293.1 K, Liquid, x1 = 0.0803	1.72 S/m	–	–
293.1 K, Liquid, x1 = 0.1197	1.36 S/m	–	59.82 mPa·s
293.1 K, Liquid, x1 = 0.1402	1.19 S/m	–	69.89 mPa·s
293.1 K, Liquid, x1 = 0.1605	1.08 S/m	–	–
293.1 K, Liquid, x1 = 0.2119	0.804 S/m	–	–
293.1 K, Liquid, x1 = 0.2632	0.564 S/m and 0.562 S/m	–	106.4 mPa·s
293.1 K, Liquid, x1 = 0.3076	0.477 S/m and 0.479 S/m	–	117.6 mPa·s
293.1 K, Liquid, x1 = 0.3555	0.357 S/m and 0.359 S/m	–	–
293.1 K, Liquid, x1 = 0.4108	0.294 S/m and 0.293 S/m	–	–
293.1 K, Liquid, x1 = 0.4688	0.214 S/m	–	–
293.1 K, Liquid, x1 = 0.5001	0.19 S/m and 0.191 S/m	–	–
